Experimental data: ChEMBL document CHEMBL4742394, “3-(aryl or heteroaryl) methyleneindolin-2-one derivatives as inhibitors of cancer stem cell pathway kinases for the treatment of cancer” (2019)
The source made the active and inactive calls. The calls are words filed in the database; no cut-off is given here.

Key:
[1] = molecular target: Small ribosomal subunit protein eS6 (Homo sapiens) (UniProt P62753); assay: Inhibition of RPS6 phosphorylation in human HeLa cells assessed as Ser240/244 phosphorylation level at 5 uM incubated for 6 hrs; format: cell-based; parameters: scale not given: the % may be the effect or the level left
[2] = molecular target: Small ribosomal subunit protein eS6 (Homo sapiens) (UniProt P62753); assay: Inhibition of RPS6 phosphorylation in human HeLa cells assessed as Ser235/236 phosphorylation level at 5 uM incubated for 6 hrs; format: cell-based; parameters: scale not given: the % may be the effect or the level left
[3] = species on record: Homo sapiens; assay: Inhibition of ERK phosphorylation (unknown origin) incubated for 6 hrs by Western blot analysis based cell based assay
[4] = molecular target: Small ribosomal subunit protein eS6 (Homo sapiens) (UniProt P62753); assay: Inhibition of RPS6 phosphorylation (unknown origin) incubated for 6 hrs by Western blot analysis based cell based assay
[5] = tested on: FaDu; assay: Growth inhibition of human FaDu cancer stem cells incubated for 72 hrs by cell-titer Glo luminescence assay; format: functional, cell-based
[6] = tested on: FaDu; assay: Growth inhibition of human FaDu cells incubated for 72 hrs by cell-titer Glo luminescence assay; format: functional, cell-based

Q: Which Activity [1] does the source give for `Cc1cc(C)c(/C=C2\C(=O)Nc3ccc(-c4csc(C5CCNCC5)n4)cc32)[nH]1` here?
A: The Activity was 76%.

Q: What about the Activity [2] of the same compound?
A: Its Activity is 76%.

Q: Which Activity [1] does the source give for `CCN(CC)CCNC(=O)c1c(C)[nH]c(/C=C2\C(=O)Nc3ccc(-c4n[nH]c5ccccc45)cc32)c1C` here?
A: Its Activity is 26%.

Q: What about the Activity [2] of the same compound?
A: Its Activity is 4%.

Q: Which inhibition [3] does the source give for `CCOC(=O)CCc1ccc(-c2nc(-c3ccc4c(c3)/C(=C/c3[nH]c(C)c(C(=O)NCCN(CC)CC)c3C)C(=O)N4)cs2)cc1` here?
A: The inhibition was “Active”.

Q: For `Cc1cc(C)c(/C=C2\C(=O)Nc3ccc(-c4ccc(C=O)cc4)cc32)[nH]1`, which inhibition [3] is on record?
A: The inhibition was “Active”.

Q: For `CCNC(=O)c1c(C)[nH]c(/C=C2\C(=O)Nc3ccc(-c4csc(-c5ccccc5)n4)cc32)c1C`, which inhibition [3] is on record?
A: The inhibition was “Active”.

Q: And the inhibition [4]?
A: The inhibition was “Active”.

Q: What does the source list for `COc1cccnc1-c1ccc2c(c1)/C(=C/c1[nH]c(C)cc1C)C(=O)N2`?
A: inhibition [3]: Active; IC50 [5]: 2.52 µM

Q: For `Cc1ccc(-c2nc(-c3ccc4c(c3)/C(=C/c3[nH]c(C)c(C(=O)N5CCN(C)CC5)c3C)C(=O)N4)cs2)cc1`, which IC50 [6] is on record?
A: The IC50 was 23.7 µM.
